Source: US8088806B2 (Achillion Pharmaceuticals, Inc., priority 2005, dated 2012)
pEC50: −log10 of the molar value.

What follows are compounds tested on HCV replicon (assay: Replicon based assay of HCV replication inhibition (NPT ELISA)). Conditions: Hepatitis C virus, Huh-7, 72 h, Table III; Huh-7 HCV replicon-containing cells, three days; read-out: Activity.
Assay type: cell-based, Hepatitis C virus
Method in brief: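 NPT (neomycin phosphotransferase) content, proportional to replicon replication, quantified by capture ELISA on day four. Before that, replicon-bearing Huh-7 cells in G418-free screening medium were exposed three days at 37° C to compound, typically six doses from 10 to 0.03 micromolar, with equal DMSO across wells.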

`CCCCCCCCOc1ccc(Nc2nc(-c3cnc4ccccc4c3)cs2)cc1C(F)(F)F` [compound 539, N-(3-(trifluoromethyl)-4-(octyloxy)phenyl)-4-(quinolin-3-yl)thiazol-2-amine] and `CCCCCCCCOc1ccc(Nc2nc(-c3ccc(O)c(O)c3)cs2)cc1C(F)(F)F` [compound 583, 4-(2-(3-(trifluoromethyl)-4-(octyloxy)phenylamino)thiazol-4-yl)benzene-1,2-diol] cannot be ordered by pEC50: over 6.00 for the first, over 6.00 for the second.

`CCCCCCCCOc1ccc(Nc2nc(-c3ccc(N(C)C)nc3)cs2)cc1C(F)(F)F` [compound 541, 5-(2-(3-(trifluoromethyl)-4-(octyloxy)phenylamino)thiazol-4-yl)-N,N-dimethylpyridin-2-amine] and `CCCCCCCCOc1ccc(Nc2nc(-c3ccc(F)cc3)cs2)cc1C(F)(F)F` [compound 580, N-(3-(trifluoromethyl)-4-(octyloxy)phenyl)-4-(4-fluorophenyl)thiazol-2-amine] cannot be ordered by pEC50: over 6.00 for the first, over 6.00 for the second.

`CCCCCOc1ccc(Nc2nc(/C=C/c3cccc(Cl)c3)cs2)cc1C(F)(F)F` [compound 542, 4-(3-chlorostyryl)-N-(3-(trifluoromethyl)-4-(pentyloxy)phenyl)thiazol-2-amine] and `CCCCCCCCOc1ccc(Nc2nc(-c3ccc(Cl)s3)cs2)cc1C(F)(F)F` [compound 582, 4-(5-chlorothiophen-2-yl)-N-(3-(trifluoromethyl)-4-(octyloxy)phenyl)thiazol-2-amine] cannot be ordered by pEC50: over 6.00 for the first, over 6.00 for the second.

First: CCCCCOc1ccc(Nc2nc(-c3cc4cccnc4nc3O)cs2)cc1C(F)(F)F [compound 543, 3-(2-(3-(trifluoromethyl)-4-(pentyloxy)phenylamino)thiazol-4-yl)-l,8-naphthyridin-2-ol]
Second: CCCCCCCCOc1ccc(Nc2nc(-c3ccc(O)c(C(N)=O)c3)cs2)cc1C(F)(F)F [compound 581, 5-(2-(3-(trifluoromethyl)-4-(octyloxy)phenylamino)thiazol-4-yl)-2-hydroxybenzamide]
The pEC50 of the first is lower: 5.00 to 6.00 for the first, over 6.00 for the second. The second is the more potent here.

`CCCCCCCCc1ccc(Nc2nc(-c3ccc(F)cc3)cs2)cc1` [compound 544, 4-(4-fluorophenyl)-N-(4-octylphenyl)thiazol-2-amine] and `CCCCCCCCc1ccc(Nc2nc(-c3ccc(Cl)cc3)cs2)cc1` [compound 555, 4-(4-chlorophenyl)-N-(4-octylphenyl)thiazol-2-amine] cannot be ordered by pEC50: over 6.00 for the first, over 6.00 for the second.

`CCCCCCCCc1ccc(Nc2nc(-c3ccc(O)c(C(N)=O)c3)cs2)cc1` [compound 545, 5-(2-(4-octylphenylamino)thiazol-4-yl)-2-hydroxybenzamide] and `CCCCCCCc1ccc(Nc2nc(-c3ccc(O)c(C(N)=O)c3)cs2)cc1` [compound 557, 5-(2-(4-heptylphenylamino)thiazol-4-yl)-2-hydroxybenzamide] cannot be ordered by pEC50: over 6.00 for the first, over 6.00 for the second.

`CCCCCCCCc1ccc(Nc2nc(-c3ccc(Cl)s3)cs2)cc1` [compound 546, 4-(5-chlorothiophen-2-yl)-N-(4-octylphenyl)thiazol-2-amine] and `CCCCCCCc1ccc(Nc2nc(-c3ccc(Cl)s3)cs2)cc1` [compound 558, 4-(5-chlorothiophen-2-yl)-N-(4-heptylphenyl)thiazol-2-amine] cannot be ordered by pEC50: over 6.00 for the first, over 6.00 for the second.

`CCCCCCCCc1ccc(Nc2nc(-c3ccc(O)c(O)c3)cs2)cc1` [compound 547, 4-(2-(4-octylphenylamino)thiazol-4-yl)benzene-1,2-diol] and `CCCCCCCc1ccc(Nc2nc(-c3ccc(O)c(O)c3)cs2)cc1` [compound 559, 4-(2-(4-heptylphenylamino)thiazol-4-yl)benzene-1,2-diol] cannot be ordered by pEC50: over 6.00 for the first, over 6.00 for the second.

`CCCCCCCCc1ccc(Nc2nc(-c3ccc4c(c3)NC(=O)CO4)cs2)cc1` [compound 548, 6-(2-(4-octylphenylamino)thiazol-4-yl)-2H-benzo[b][1,4]oxazin-3(4H)-one] and `CCCCCCCc1ccc(Nc2nc(-c3ccc4c(c3)NC(=O)CO4)cs2)cc1` [compound 560] cannot be ordered by pEC50: over 6.00 for the first, over 6.00 for the second.

`CCCCCCCCc1ccc(Nc2nc(-c3ccc4[nH]c(=O)oc4c3)cs2)cc1` [compound 549, 6-(2-(4-octylphenylamrno)thiazol-4-yl)benzo[d]oxazol-2(3H)-one] and `CCCCCCCc1ccc(Nc2nc(-c3ccc4[nH]c(=O)oc4c3)cs2)cc1` [compound 561] cannot be ordered by pEC50: over 6.00 for the first, over 6.00 for the second.

`CCCCCCCCc1ccc(Nc2nc(-c3ccc(OCC(=O)O)cc3)c(C)s2)cc1` [compound 550, 2-(4-(2-(4-octylphenylamino)-5-methylthiazol-4-yl)phenoxy)acetic acid] and `CCCCCCCc1ccc(Nc2nc(-c3ccc(OCC(=O)O)cc3)c(C)s2)cc1` [compound 562, 2-(4-(2-(4-heptylphenylamino)-5-methylthiazol-4-yl)phenoxy)acetic acid] cannot be ordered by pEC50: over 6.00 for the first, over 6.00 for the second.

`CCCCCCCCc1ccc(Nc2nc(-c3ccccn3)cs2)cc1` [compound 551, N-(4-octylphenyl)-4-(pyridin-2-yl)thiazol-2-amine] and `CCCCCCCc1ccc(Nc2nc(-c3ccccn3)cs2)cc1` [compound 563, N-(4-heptylphenyl)-4-(pyridin-2-yl)thiazol-2-amine] cannot be ordered by pEC50: over 6.00 for the first, over 6.00 for the second.

`CCCCCCCCc1ccc(Nc2nc(-c3ccc(-c4ccccn4)s3)cs2)cc1` [compound 552, N-(4-octylphenyl)-4-(5-(pyridin-2-yl)thiophen-2-yl)thiazol-2-amine] and `CCCCCCCc1ccc(Nc2nc(-c3ccc(-c4ccccn4)s3)cs2)cc1` [compound 564, N-(4-heptylphenyl)-4-(5-(pyridin-2-yl)thiophen-2-yl)thiazol-2-amine] cannot be ordered by pEC50: over 6.00 for the first, over 6.00 for the second.

First: CCCCCCCCc1ccc(Nc2nc(-c3cc4ccccc4o3)cs2)cc1 [compound 553, 4-(benzofuran-2-yl)-N-(4-octylphenyl)thiazol-2-amine]
Second: CCCCCCCc1ccc(Nc2nc(-c3cc4ccccc4o3)cs2)cc1 [compound 565, 4-(benzofuran-2-yl)-N-(4-heptylphenyl)thiazol-2-amine]
The pEC50 of the first is higher: 5.00 to 6.00 for the first, under 5.00 for the second. The first is the more potent here.

`CCCCCCCCc1ccc(Nc2nc(-c3sc(-c4cnccn4)nc3C)cs2)cc1` [compound 554, 4-(4-methyl-2-(pyrazin-2-yl)thiazol-5-yl)-N-(4-octylphenyl)thiazol-2-amine] and `CCCCCCCc1ccc(Nc2nc(-c3sc(-c4cnccn4)nc3C)cs2)cc1` [compound 566, N-(4-heptylphenyl)-4-(4-methyl-2-(pyrazin-2-yl)thiazol-5-yl)thiazol-2-amine] cannot be ordered by pEC50: over 6.00 for the first, over 6.00 for the second.

`CCCCCCCc1ccc(Nc2nc(-c3ccc(Cl)cc3)cs2)cc1` [compound 567, 4-(4-chlorophenyl)-N-(4-heptylphenyl)thiazol-2-amine] and `CCCCCCCCN(C)c1ccc(Nc2nc(-c3ccc(Cl)cc3)cs2)cc1C(F)(F)F` [compound 579, N^4-(4-(4-chlorophenyl)thiazol-2-yl)-2-(trifluoromethyl)-N^1-methyl-N^1-octylbenzene-1,4-diamine] cannot be ordered by pEC50: over 6.00 for the first, over 6.00 for the second.

`CCCCCCCCN(C)c1ccc(Nc2nc(-c3ccc(F)cc3)cs2)cc1C(F)(F)F` [compound 568, 2-(trifluoromethyl)-N^4-(4-(4-fluorophenyl)thiazol-2-yl)-N^1-methyl-N^1-octylbenzene-1,4-diamine] and `CCCCCCCCN(C)c1ccc(Nc2nc(-c3ccc(O)c(O)c3)cs2)cc1C(F)(F)F` [compound 571, 4-(2-(4-(N-methyl-N-octylamino)-3-(trifluoromethyl)phenylamino)thiazol-4-yl)benzene-1,2-diol] cannot be ordered by pEC50: over 6.00 for the first, over 6.00 for the second.

`CCCCCCCCN(C)c1ccc(Nc2nc(-c3ccc(O)c(C(N)=O)c3)cs2)cc1C(F)(F)F` [compound 569, 5-(2-(4-(N-methyl-N-octylamino)-3-(trifluoromethyl)phenylamino)thiazol-4-yl)-2-hydroxybenzamide] and `CCCCCCCCN(C)c1ccc(Nc2nc(-c3ccc4[nH]c(=O)oc4c3)cs2)cc1C(F)(F)F` [compound 573, 6-(2-(4-(N-methyl-N-octylamino)-3-(tnfluoromethyl)phenylamino)azol-4-yl)benzo[d]oxazol-2(3H)-one] cannot be ordered by pEC50: over 6.00 for the first, over 6.00 for the second.

`CCCCCCCCN(C)c1ccc(Nc2nc(-c3ccc(Cl)s3)cs2)cc1C(F)(F)F` [compound 570, N^4-(4-(5-chlorothiophen-2-yl)thiazol-2-yl)-2-(trifluoromethyl)-N^1-methyl-N^1-octylbenzene-1,4-diamine] and `CCCCCCCCN(C)c1ccc(Nc2nc(-c3ccc(-c4ccccn4)s3)cs2)cc1C(F)(F)F` [compound 576, 2-(trifluoromethyl)-N^1-methyl-N^1-octyl-N^4-(4-(5-(pyridin-2-yl)thiophen-2-yl)thiazol-2-yl)benzene-1,4-diamine] cannot be ordered by pEC50: over 6.00 for the first, over 6.00 for the second.

First: CCCCCCCCN(C)c1ccc(Nc2nc(-c3ccc4c(c3)NC(=O)CO4)cs2)cc1C(F)(F)F [compound 572, 6-(2-(4-(N-methyl-N-octylamino)-3-(trifluoromethyl)phenylamino)thiazol-4-yl)-2H-benzo[b][1,4]oxazin-3(4H)-one]
Second: CCCCCCCCOc1ccc(Nc2nc(-c3ccc4c(c3)NC(=O)CO4)cs2)cc1C(F)(F)F [compound 584, 6-(2-(3-(trifluoromethyl)-4-(octyloxy)phenylamino)thiazol-4-yl)-2H-benzo[b][1,4]oxazin-3(4H)-one]
The pEC50 of the first is lower: 5.00 to 6.00 for the first, over 6.00 for the second.

Compared with `CCCCCCCCN(C)c1ccc(Nc2nc(-c3ccc(OCC(=O)O)cc3)c(C)s2)cc1C(F)(F)F` [compound 574, 2-(4-(2-(4-(N-methyl-N-octylamino)-3-(trifluoromethyl)phenylamino)-5-methylthiazol-4-yl)phenoxy)acetic acid], `CCCCCCCCN(C)c1ccc(Nc2nc(-c3cc4ccccc4o3)cs2)cc1C(F)(F)F` [compound 577, N^4-(4-(benzofuran-2-yl)thiazol-2-yl)-2-(trifluoromethyl)-N^1-methyl-N^1-octylbenzene-1,4-diamine] is lower in pEC50: over 6.00 for the first, 5.00 to 6.00 for the second. The first is the more potent here.

For `CCCCCCCCN(C)c1ccc(Nc2nc(-c3sc(-c4cnccn4)nc3C)cs2)cc1C(F)(F)F` [compound 578, 2-(trifluoromethyl)-N^1-methyl-N^4-(4-(4-methyl-2-(pyrazin-2-yl)thiazol-5-yl)thiazol-2-yl)-N^1-octylbenzene-1,4-diamine], the pEC50 was 5.00 to 6.00.
